Measurements: publication PMC4971050 (Forensic Toxicology, 2016)

Columns and labels:
human CB1 receptor = human CB1 receptor (Homo sapiens, UniProt P21554); assay: FLIPR membrane potential assay; type: cell-based; conditions: for EC50: membrane potential; for hCB1 Max ± SEM (% CP 55,940): maximum drug effect as percentage of maximally effective (1 µM) CP 55,940; for CB1 selectivity: ratio of CB2 EC50 to CB1 EC50
human CB2 receptor = human CB2 receptor (Homo sapiens, UniProt P34972); assay: FLIPR membrane potential assay; type: cell-based; conditions: for EC50: membrane potential; for hCB2 Max ± SEM (% CP 55,940): maximum drug effect as percentage of maximally effective (1 µM) CP 55,940; for hCB2 Max ± SEM (% CP 55,940) at 30 µM: effect at 30 µM, highest concentration tested, relative to 1 µM CP 55,940
[1] = hCB1 pEC50 ± SEM, AtT-20-CB1 cells
[2] = hCB2 pEC50 ± SEM, AtT-20-CB2 cells

Sequence of human CB1 receptor (P21554 whole entry): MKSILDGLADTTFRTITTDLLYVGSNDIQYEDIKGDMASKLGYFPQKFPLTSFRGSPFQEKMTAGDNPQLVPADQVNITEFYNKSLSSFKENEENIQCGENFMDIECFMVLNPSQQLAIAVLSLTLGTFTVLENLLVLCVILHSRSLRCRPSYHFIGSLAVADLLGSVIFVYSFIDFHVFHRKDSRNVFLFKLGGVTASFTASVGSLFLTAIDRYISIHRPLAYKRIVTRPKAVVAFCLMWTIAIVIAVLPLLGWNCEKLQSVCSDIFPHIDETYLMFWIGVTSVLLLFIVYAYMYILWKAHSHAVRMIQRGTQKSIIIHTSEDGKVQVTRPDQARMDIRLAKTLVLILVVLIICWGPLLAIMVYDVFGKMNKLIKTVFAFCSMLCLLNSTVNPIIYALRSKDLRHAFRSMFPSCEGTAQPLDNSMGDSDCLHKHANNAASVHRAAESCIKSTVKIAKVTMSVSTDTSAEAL
Sequence of human CB2 receptor (P34972 whole entry): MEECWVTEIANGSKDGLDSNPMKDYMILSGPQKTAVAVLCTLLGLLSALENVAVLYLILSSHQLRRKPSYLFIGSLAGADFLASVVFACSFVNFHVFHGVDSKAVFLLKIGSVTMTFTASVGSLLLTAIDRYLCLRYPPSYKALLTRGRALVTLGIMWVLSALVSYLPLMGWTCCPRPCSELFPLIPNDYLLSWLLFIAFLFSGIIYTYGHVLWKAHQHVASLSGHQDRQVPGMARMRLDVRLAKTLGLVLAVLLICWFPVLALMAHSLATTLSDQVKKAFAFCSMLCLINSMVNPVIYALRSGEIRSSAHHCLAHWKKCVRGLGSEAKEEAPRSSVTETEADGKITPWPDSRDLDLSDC

| SMILES | EC50 (human CB1 receptor; [1]) | hCB1 Max ± SEM (% CP 55,940) (human CB1 receptor) | CB1 selectivity (human CB1 receptor) | EC50 (human CB2 receptor; hCB2 EC50, AtT-20-CB2 cells) | hCB2 Max ± SEM (% CP 55,940) (human CB2 receptor) | EC50 (human CB1 receptor; hCB1 EC50, AtT-20-CB1 cells) | EC50 (human CB2 receptor; [2]) | hCB2 Max ± SEM (% CP 55,940) at 30 µM (human CB2 receptor) | hCB1 Max ± SEM (% CP 55,940) at 30 µM (human CB1 receptor; effect at 30 µM, highest concentration tested, relative to 1 µM CP 55,940) |
| --- | --- | --- | --- | --- | --- | --- | --- | --- | --- |
| CC(C)[C@H](NC(=O)c1nn(CCCCCF)c2ccccc12)C(N)=O [compound 6, (S)-N-(1-Amino-3-methyl-1-oxobutan-2-yl)-1-(5-fluoropentyl)-1H-indazole-3-carboxamide] | 2.82 nM | 132 ± 9 % CP 55,940 | 2.0 | 5.6 nM | 98 ± 8 % CP 55,940 |  |  |  |  |
| CCCCCn1nc(C(=O)N[C@H](C(N)=O)C(C)C)c2ccccc21 [compound 5, (S)-N-(1-Amino-3-methyl-1-oxobutan-2-yl)-1-pentyl-1H-indazole-3-carboxamide] |  | 142 ± 15 % CP 55,940 | 1.5 | 9.9 nM | 102 ± 9 % CP 55,940 | 6.5 nM | 9.77 nM |  |  |
| CC(C)[C@H](NC(=O)c1c2ccccc2nn1CC1CCCCC1)C(N)=O [compound 7, (S)-N-(1-Amino-3-methyl-1-oxobutan-2-yl)-2-(cyclohexylmethyl)-2H-indazole-3-carboxamide] |  |  |  |  |  |  |  | 45 ± 7 (at 30 µM) % CP 55,940 |  |
| CC(C)[C@H](NC(=O)c1c2ccccc2nn1Cc1ccc(F)cc1)C(N)=O [compound 8, (S)-N-(1-Amino-3-methyl-1-oxobutan-2-yl)-2-(4-fluorobenzyl)-2H-indazole-3-carboxamide] |  |  |  |  |  |  |  | 25 ± 4 (at 30 µM) % CP 55,940 | 61 ± 12 (at 30 µM) % CP 55,940 |
| CC(C)[C@H](NC(=O)c1nn(CC2CCCCC2)c2ccccc12)C(N)=O [compound 3, (S)-N-(1-Amino-3-methyl-1-oxobutan-2-yl)-1-(cyclohexylmethyl)-1H-indazole-3-carboxamide] |  | 142 ± 18 % CP 55,940 | 2.7 |  | 104 ± 11 % CP 55,940 | 7.8 nM | 20.9 nM |  |  |
| CC(C)[C@H](NC(=O)c1c2ccccc2nn1CCCCCF)C(N)=O [compound 10, (S)-N-(1-Amino-3-methyl-1-oxobutan-2-yl)-2-(5-fluoropentyl)-2H-indazole-3-carboxamide] | 1910 nM |  | 1.5 | 2980 nM |  | 1930 nM |  | 47 ± 15 (at 30 µM) % CP 55,940 |  |
| CC(C)[C@H](NC(=O)c1nn(Cc2ccc(F)cc2)c2ccccc12)C(N)=O [compound 4, (S)-N-(1-Amino-3-methyl-1-oxobutan-2-yl)-1-(4-fluorobenzyl)-1H-indazole-3-carboxamide] | 2.14 nM | 151 ± 14 % CP 55,940 | 3.2 | 6.7 nM | 98 ± 10 % CP 55,940 |  |  |  |  |
| CCCCCn1nc2ccccc2c1C(=O)N[C@H](C(N)=O)C(C)C [compound 9, (S)-N-(1-Amino-3-methyl-1-oxobutan-2-yl)-2-pentyl-2H-indazole-3-carboxamide] |  |  | 1.0 | 4120 nM |  | 4080 nM |  |  |  |
